The values that follow come from US9549985B2, “Compositions comprising polymers prepared from 2-hydroxyalkyl acids” (UNIVERSITE DE GENEVE, priority 2010, dated 2017).

This series in a line: Solubility of Haloperidol in the hexPLA matrix. In kind it is physicochemical. Conditions: depends on polymer molecular weight.

In the case of `O=C(CCCN1CCC(O)(c2ccc(Cl)cc2)CC1)c1ccc(F)cc1` [Haloperidol], the “Solubility of Haloperidol in hexPLA matrix” value is “dissolvable”.
